Laboratory results published in patent publication US7115632B1, “Sulfonyl aryl or heteroaryl hydroxamic acid compounds” (priority 1999, dated 2006).

Experiments:
[1] = system: solid tumor cancers (colorectal, pancreatic, ovarian, prostate); details: cited from earlier work
MMP-1 = biological target: T1, MMP-1 (Homo sapiens, UniProt P03956); experiment: In vitro metalloprotease inhibition, fluorogenic MCA peptide substrate; format: biochemical; details: Inhibition Table B
T1 construct: made in house; host or cells: transfected HT-1080 cells (provided by Dr. Harold Welgus, Washington University)
T1 sequence (P03956 100-469): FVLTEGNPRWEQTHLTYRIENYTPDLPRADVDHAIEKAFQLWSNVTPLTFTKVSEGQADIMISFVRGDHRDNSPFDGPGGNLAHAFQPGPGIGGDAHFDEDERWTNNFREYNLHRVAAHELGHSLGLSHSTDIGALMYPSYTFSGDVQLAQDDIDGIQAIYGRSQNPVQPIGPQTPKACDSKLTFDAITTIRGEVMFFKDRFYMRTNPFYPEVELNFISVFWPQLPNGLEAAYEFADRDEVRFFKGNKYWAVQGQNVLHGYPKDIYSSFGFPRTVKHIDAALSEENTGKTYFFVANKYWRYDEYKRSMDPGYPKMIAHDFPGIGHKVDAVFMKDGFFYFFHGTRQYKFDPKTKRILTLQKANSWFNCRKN
Source text: (§5) The expressed enzyme was purified first over a heparin agarose column and then over a chelating zinc chloride column. The proenzyme was activated by APMA for use in the assay.

MMP-2 = biological target: T2, MMP-2 (Homo sapiens, UniProt P08253); experiment: as above; format: biochemical; details: Inhibition Table B
T2 construct: made in house; provided by Dr. Gregory Goldberg, Washington University
T2 sequence (P08253 110-660): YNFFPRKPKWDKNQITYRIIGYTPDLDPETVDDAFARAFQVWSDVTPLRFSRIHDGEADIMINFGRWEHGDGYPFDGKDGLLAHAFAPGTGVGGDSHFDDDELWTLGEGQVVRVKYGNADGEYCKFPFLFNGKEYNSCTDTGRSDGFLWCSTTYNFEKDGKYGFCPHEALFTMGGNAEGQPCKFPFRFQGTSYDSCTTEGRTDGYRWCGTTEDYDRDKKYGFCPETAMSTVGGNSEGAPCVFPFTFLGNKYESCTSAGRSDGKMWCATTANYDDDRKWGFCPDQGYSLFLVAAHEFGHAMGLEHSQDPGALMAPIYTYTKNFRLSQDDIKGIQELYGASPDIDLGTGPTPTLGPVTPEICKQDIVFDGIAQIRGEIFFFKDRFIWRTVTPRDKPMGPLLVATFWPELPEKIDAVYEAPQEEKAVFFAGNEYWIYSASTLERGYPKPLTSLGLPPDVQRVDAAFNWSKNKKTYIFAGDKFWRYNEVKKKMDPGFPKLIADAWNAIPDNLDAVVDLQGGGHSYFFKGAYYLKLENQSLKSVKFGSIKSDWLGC
Source text: as §5

MMP-13 = biological target: T3, MMP-13 (Homo sapiens, UniProt P45452); experiment: as above; format: biochemical; details: Inhibition Table B
T3 construct: made in house; host or cells: insect cells, baculovirus expression
Source text: as §5

MMP-3 = MMP-3 (Homo sapiens, UniProt P08254); experiment: as above; format: biochemical; details: Inhibition Table B
MMP-8 = MMP-8 (Homo sapiens, UniProt P22894); experiment: as above; format: biochemical; details: Inhibition Table B
Procedure: (§1) Briefly, 4-aminophenylmercuric acetate (APMA) or trypsin-activated MMPs were incubated with various concentrations of the inhibitor compound at room temperature for 5 minutes.
(§2) MCA-ProLeuGlyLeuDpaAlaArgNH2, wherein MCA is methoxycoumarin and Dpa is 3-(2,4-dinitrophenyl)-L-2,3-diaminopropionyl alanine.
(§3) The buffer used for assays contained 100 mM Tris-HCl, 100 mM NaCl, 10 mM CaCl2 and 0.05 percent polyethyleneglycol (23) lauryl ether at a pH value of 7.5.
(§4) The ID50 values were calculated from those values.

MT1-MMP = MT1-MMP (Homo sapiens, UniProt P50281); experiment: as above; format: biochemical; details: Inhibition Table B
Procedure: as §1, §2, §3, §4

MMP-9 = biological target: T4, MMP-9 (Homo sapiens, UniProt P14780); experiment: as above; format: biochemical; details: Inhibition Table B
T4 construct: made in house; host or cells: transfected HT-1080 cells (provided by Dr. Harold Welgus)
Procedure: as §1
MMP-1 expressed in transfected HT-1080 cells was provided by Dr. Harold Welgus of Washington University, St. Louis, Mo. The enzyme was also activated using APMA and was then purified over a hydroxamic acid column. Dr. Welgus also provided transfected HT-1080 cells that expressed MMP-9. Transfected cells that expressed MMP-2 were provided by Dr. Gregory Goldberg, also of Washington University. Further specifics for preparation and use of these enzymes can be found in the scientific literature describing these enzymes. See, for example, Enzyme Nomenclature, Academic Press, San Diego, Calif. (1992) and the citations therein, and Frije et al., J. Biol. Chem., 26(24): 16766–16773 (1994).
as §2, §3, §4

MMP-3, sequence (P08254 100-477, species assumed): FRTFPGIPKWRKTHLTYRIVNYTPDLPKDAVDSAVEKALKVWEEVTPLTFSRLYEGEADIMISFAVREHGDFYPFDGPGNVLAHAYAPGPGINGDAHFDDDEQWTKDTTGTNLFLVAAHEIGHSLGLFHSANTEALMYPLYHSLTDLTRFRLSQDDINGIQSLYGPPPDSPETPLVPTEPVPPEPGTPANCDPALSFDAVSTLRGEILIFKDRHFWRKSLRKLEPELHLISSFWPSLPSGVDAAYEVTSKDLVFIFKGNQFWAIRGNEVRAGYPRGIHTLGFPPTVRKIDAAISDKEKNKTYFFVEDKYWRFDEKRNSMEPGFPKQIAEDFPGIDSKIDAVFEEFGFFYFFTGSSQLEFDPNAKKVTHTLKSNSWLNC
T4 sequence (P14780 107-707 limits assumed): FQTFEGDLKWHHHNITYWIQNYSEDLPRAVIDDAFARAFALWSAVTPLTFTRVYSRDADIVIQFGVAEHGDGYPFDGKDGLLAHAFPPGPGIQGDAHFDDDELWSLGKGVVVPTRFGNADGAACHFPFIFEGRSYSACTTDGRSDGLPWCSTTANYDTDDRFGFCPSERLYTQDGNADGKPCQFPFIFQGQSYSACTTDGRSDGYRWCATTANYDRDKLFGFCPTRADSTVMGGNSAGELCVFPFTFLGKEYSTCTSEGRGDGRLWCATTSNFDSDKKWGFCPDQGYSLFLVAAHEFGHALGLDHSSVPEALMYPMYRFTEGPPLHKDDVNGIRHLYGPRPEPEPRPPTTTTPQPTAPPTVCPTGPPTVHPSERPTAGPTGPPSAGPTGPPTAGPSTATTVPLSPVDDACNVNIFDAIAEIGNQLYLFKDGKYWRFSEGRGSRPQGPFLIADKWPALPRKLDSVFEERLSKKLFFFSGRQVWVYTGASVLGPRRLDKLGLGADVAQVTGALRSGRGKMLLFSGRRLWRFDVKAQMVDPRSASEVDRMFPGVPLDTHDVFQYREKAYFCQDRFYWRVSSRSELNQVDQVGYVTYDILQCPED
MMP-8, sequence (P22894 101-467, species assumed): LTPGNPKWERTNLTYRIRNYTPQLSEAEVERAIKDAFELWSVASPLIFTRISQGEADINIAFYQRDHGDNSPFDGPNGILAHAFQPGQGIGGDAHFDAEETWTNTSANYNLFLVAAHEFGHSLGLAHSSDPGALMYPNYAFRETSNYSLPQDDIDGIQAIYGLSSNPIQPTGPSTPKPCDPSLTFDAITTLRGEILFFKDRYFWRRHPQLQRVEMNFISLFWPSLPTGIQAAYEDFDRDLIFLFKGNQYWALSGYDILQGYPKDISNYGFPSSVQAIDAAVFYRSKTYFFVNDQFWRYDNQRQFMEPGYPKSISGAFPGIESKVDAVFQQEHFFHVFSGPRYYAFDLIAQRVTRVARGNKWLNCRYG

CNC(=O)[C@@H](NC(=O)[C@H](CC(C)C)[C@H](O)C(=O)NO)C(C)(C)C [marimastat, Marimastat]
most common drug-related toxicity ([1]; clinical trials, patients): musculoskeletal pain and stiffness | rise of cancer-specific antigens (surrogate markers for biological activity) ([1]; patients with advanced, rapidly progressive, treatment-refractory solid tumor cancers): dose-related reduction in the rise of cancer-specific antigens

CCCCOc1ccc(OC2CCN(S(=O)(=O)c3ccc(OC)c(OC)c3C(=O)NO)CC2)cc1 [Example 54, 6-[[4-(4-Butoxyphenoxy)-1-piperidinyl]sulfonyl]-N-hydroxy-2,3-dimethoxybenzamide]
IC50 (MMP-1): > 10 µM | IC50 (MMP-2): 0.8 nM | IC50 (MMP-13): 1.6 nM | IC50 (MMP-3): 31.6 nM | IC50 (MMP-8): 70 nM | IC50 (MT1-MMP): 200 nM | IC50 (MMP-9): 2 nM

COc1ccc(S(=O)(=O)N2CCC(Sc3ccccc3)CC2)c(C(=O)NO)c1OC [Example 24, N-Hydroxy-2,3-dimethoxy-6-[[4-(phenylthio)-1-piperidinyl]sulfonyl]benzamide]
IC50 (MMP-1): > 10 µM | IC50 (MMP-2): 0.9 nM | IC50 (MMP-13): 3 nM | IC50 (MMP-3): 400 nM | IC50 (MMP-8): 10.7 nM | IC50 (MT1-MMP): 25.4 nM | IC50 (MMP-9): 10 nM

COc1ccc(S(=O)(=O)N2CCC(Oc3ccc(-c4cccc(C(F)(F)F)c4)cc3)CC2)c(C(=O)NO)c1OC [Example 27, N-Hydroxyl-2,3-dimethoxy-6-[[4-[[3′-(trifluoromethyl)[1,1′-biphenyl]-4-yl]oxy]-1-piperidinyl]sulfonyl]benzamide]
IC50 (MMP-1): > 10 µM | IC50 (MMP-2): 3.3 nM | IC50 (MMP-13): 3 nM | IC50 (MMP-3): 300 nM | IC50 (MMP-8): 210 nM | IC50 (MT1-MMP): 690 nM | IC50 (MMP-9): 520 nM

O=C(NO)c1c(S(=O)(=O)N2CCC(Oc3ccc(C(F)(F)F)cc3)CC2)ccc2c1OCO2 [Example 36]
IC50 (MMP-1): > 10 µM | IC50 (MMP-2): 3 nM | IC50 (MMP-13): 18 nM | IC50 (MMP-3): 600 nM | IC50 (MMP-8): 12.2 nM | IC50 (MT1-MMP): 300 nM | IC50 (MMP-9): 8 nM
